In one data set the test system is MDA-MB-231. In words: Cytotoxicity against human MDA-MB-231 cells incubated for 72 hrs by MTT assay. Format: functional, cell-based. The following applies: MDA-MB-231, 72 h. In general terms: Formazan colour is commonly taken as a measure of viable cells.
A further data set deals with A549. Put plainly: Cytotoxicity against human A549 cells incubated for 72 hrs by MTT assay. The note with it: A549, 72 h.
The target of a further data set is Histone deacetylase 2 (Homo sapiens, UniProt Q92769). Put plainly: Inhibition of HDAC2 in human HeLa nuclear extracts incubated for 30 mins by fluorescence based assay. Format: cell-based.
Chain of Histone deacetylase 2 (Q92769 whole entry): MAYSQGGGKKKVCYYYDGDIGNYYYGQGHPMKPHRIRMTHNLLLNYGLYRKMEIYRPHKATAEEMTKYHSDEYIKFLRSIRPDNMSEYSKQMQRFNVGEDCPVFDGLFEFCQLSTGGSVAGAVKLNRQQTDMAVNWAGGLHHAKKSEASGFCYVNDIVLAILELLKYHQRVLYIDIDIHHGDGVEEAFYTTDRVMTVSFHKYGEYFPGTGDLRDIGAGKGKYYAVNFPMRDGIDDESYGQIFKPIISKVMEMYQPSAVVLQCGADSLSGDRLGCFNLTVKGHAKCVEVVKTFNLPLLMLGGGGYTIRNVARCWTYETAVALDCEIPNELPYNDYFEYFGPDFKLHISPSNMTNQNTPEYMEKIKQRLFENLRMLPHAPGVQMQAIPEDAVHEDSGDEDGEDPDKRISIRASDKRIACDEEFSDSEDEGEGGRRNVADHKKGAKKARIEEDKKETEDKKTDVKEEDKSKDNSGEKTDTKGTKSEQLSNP
Data set [1] has as its system PC-3. Put plainly: Cytotoxicity against human PC-3 cells incubated for 72 hrs by MTT assay. The following applies: PC-3, 72 h.
The next data set has as its system U-251. Put plainly: Cytotoxicity against human U-251 cells incubated for 72 hrs by MTT assay. The following applies: U-251, 72 h.
The target in another data set is Histone deacetylase 1 (Homo sapiens, UniProt Q13547). In words: Inhibition of HDAC1 in human HeLa nuclear extracts incubated for 30 mins by fluorescence based assay. Format: cell-free.
Chain of Histone deacetylase 1 (Q13547 whole entry): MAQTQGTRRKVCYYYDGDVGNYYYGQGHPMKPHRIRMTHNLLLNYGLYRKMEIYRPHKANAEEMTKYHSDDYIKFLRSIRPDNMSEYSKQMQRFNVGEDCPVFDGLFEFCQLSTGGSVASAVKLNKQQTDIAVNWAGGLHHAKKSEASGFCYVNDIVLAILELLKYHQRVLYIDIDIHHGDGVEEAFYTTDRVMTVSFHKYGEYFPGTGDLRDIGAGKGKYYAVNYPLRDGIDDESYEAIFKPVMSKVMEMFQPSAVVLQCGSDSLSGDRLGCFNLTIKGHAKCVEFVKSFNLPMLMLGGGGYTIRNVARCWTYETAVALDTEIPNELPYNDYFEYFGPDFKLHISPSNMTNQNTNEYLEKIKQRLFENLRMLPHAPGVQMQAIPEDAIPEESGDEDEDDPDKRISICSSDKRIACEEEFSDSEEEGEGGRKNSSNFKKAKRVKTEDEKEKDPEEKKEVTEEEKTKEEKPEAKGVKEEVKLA
The target of data set [2] is T1, Protein deacetylase HDAC6 (Homo sapiens, UniProt Q9UBN7).
T1 sequence (Q9UBN7 whole entry): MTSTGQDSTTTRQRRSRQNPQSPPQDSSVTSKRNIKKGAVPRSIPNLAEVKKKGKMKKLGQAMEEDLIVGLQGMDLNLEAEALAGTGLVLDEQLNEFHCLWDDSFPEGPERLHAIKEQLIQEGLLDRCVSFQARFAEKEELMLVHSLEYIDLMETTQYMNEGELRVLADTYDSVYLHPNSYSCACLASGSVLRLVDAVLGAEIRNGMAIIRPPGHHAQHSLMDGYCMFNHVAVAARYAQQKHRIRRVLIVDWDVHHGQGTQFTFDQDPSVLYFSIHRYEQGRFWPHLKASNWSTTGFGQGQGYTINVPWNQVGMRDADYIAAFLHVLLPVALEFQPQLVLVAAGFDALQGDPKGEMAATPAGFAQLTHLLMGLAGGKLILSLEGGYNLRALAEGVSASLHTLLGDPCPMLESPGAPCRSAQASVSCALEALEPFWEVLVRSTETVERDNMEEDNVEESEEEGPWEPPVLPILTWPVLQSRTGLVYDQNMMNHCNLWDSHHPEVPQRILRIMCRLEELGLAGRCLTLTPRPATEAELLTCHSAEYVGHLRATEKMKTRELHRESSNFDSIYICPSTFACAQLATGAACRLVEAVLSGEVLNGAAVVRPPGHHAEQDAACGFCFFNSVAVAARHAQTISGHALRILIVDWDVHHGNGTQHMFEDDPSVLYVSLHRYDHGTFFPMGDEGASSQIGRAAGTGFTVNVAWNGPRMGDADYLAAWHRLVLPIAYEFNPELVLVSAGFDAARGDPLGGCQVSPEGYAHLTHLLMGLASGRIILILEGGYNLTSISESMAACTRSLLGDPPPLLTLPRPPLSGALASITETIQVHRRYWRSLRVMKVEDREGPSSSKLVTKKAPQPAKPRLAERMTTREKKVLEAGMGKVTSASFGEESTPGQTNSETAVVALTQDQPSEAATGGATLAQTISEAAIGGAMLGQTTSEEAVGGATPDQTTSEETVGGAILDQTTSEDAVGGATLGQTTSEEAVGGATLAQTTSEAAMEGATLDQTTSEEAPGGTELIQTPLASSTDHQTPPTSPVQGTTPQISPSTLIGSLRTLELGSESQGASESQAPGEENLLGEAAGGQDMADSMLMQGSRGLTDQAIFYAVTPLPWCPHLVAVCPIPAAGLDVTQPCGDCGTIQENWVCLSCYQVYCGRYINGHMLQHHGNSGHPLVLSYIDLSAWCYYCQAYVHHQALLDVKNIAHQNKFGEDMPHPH
In words: Inhibition of HDAC6 in human HeLa nuclear extracts incubated for 30 mins by fluorescence based assay. Format: cell-free.

In a further data set the target is T2, Histone deacetylase 7 (Homo sapiens, UniProt Q8WUI4).
T2 sequence (Q8WUI4 whole entry): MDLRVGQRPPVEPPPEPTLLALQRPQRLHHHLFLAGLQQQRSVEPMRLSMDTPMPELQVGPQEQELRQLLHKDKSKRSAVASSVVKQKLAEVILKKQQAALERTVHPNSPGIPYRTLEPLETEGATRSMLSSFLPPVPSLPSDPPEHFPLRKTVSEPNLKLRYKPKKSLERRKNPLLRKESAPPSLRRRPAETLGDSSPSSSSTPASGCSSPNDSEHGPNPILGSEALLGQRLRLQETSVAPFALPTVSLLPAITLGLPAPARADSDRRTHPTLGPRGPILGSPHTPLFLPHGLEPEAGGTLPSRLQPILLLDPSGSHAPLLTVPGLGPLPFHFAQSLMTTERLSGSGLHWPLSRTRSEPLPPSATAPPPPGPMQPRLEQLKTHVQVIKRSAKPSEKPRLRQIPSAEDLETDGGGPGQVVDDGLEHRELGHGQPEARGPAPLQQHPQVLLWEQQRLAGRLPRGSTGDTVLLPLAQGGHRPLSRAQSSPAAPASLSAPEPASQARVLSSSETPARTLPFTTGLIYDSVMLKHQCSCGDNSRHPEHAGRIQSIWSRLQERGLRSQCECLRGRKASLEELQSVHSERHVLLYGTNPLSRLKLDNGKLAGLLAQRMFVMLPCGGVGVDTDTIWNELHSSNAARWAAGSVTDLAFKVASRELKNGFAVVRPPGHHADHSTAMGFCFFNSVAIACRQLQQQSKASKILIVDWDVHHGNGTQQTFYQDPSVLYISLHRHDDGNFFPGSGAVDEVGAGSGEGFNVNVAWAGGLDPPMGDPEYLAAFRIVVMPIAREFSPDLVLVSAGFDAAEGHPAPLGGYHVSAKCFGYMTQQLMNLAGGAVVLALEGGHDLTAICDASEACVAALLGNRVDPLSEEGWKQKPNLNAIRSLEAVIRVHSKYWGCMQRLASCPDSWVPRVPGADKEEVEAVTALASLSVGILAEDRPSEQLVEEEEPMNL
Put plainly: Inhibition of HDAC7 in human HeLa nuclear extracts incubated for 30 mins by fluorescence based assay. Format: cell-free.

For the next data set, the system named is MCF7. In words: Cytotoxicity against human MCF7 cells incubated for 72 hrs by MTT assay. The note with it: MCF7, 72 h.
A short description of data set [3]: Toxicity in BALB/c nude mouse xenografted with human PC-3 cells assessed as body weight loss at 5 mg/kg, iv administered every 2 days and measured after 3 weeks. Format: organism-based. The note with it: in vivo, 504 h. For orientation: In xenograft studies the graft and the host belong to different species.
Data set [4] deals with PC-3. Put plainly: Antitumor activity against human PC-3 cells xenografted in BALB/c nude mouse assessed as tumor growth inhibition at 5 mg/kg, iv administered every 2 days and measured after 3 weeks. Format: functional. The following applies: PC-3, 504 h, read-out: TGI.
Data set [5] can be described thus: Toxicity in BALB/c nude mouse xenografted with human PC-3 cells assessed as mortality at 5 mg/kg, iv administered every 2 days and measured after 3 weeks. Format: organism-based. The note with it: in vivo, 504 h.

As for `COc1ccc(/C=C/C(=O)c2ccc(Br)c3c2OC(C)(C)C=C3)cc1OCC(=O)NO`, the IC50 – broadly, the concentration that inhibits the measured activity by half – with MDA-MB-231 came out at 470 nM; with A549 it was 1310 nM; against Histone deacetylase 2, 830 nM; in the data set with PC-3 [1] it was 720 nM; with U-251, 490 nM; at Histone deacetylase 1 it was 580 nM. In addition, the IC50 in data set [2] came to 1210 nM; at Histone deacetylase 7, 5420 nM; in the data set on MCF7 it was 1820 nM.
As for `CC(=O)O[C@H]1C(=O)[C@@]2(C)[C@H]([C@H](OC(=O)c3ccccc3)[C@]3(O)C[C@H](OC(=O)[C@H](O)[C@@H](NC(=O)c4ccccc4)c4ccccc4)C(C)=C1C3(C)C)[C@]1(OC(C)=O)CO[C@@H]1C[C@@H]2O` [PACLITAXEL], the Activity entry in data set [3] and in [5] was “Toxic” in each case. Also, in the data set with PC-3 [4], the inhibition in vivo at 5 mg/kg turned out to be 91.3%.
With `COc1ccc(/C=C/C(=O)c2ccc(Br)c3c2OC(C)(C)C=C3)cc1NCC(=O)NO`, the IC50 was 160 nM in the data set on MDA-MB-231; 800 nM with A549; 1430 nM against Histone deacetylase 2; 32 nM in the data set on PC-3 [1]; 140 nM in the data set on U-251; 870 nM against Histone deacetylase 1. Moreover, the IC50 in data set [2] was determined as 3350 nM; at Histone deacetylase 7 it was 8300 nM; with MCF7, 190 nM.
